Data taken from US20120244567A1, “HUMAN EMBRYONIC STEM CELLS FOR HIGH THROUGHOUT DRUG SCREENING” (BUCK INSTITUTE FOR RESEARCH ON AGING, priority 2009, published 2012).
Counter-ions that a name gives are not always drawn. Like-named read-outs stand apart in the source and are kept apart here.

Tested on: NSCs
Method: RNAs isolated from NSCs and neurons with and without drug treatments were hybridized to Illumina HumanRef-8 BeadChip (Illumina, Inc., San Diego, Calif., performed by Microarray core facility at the Burnham Institute for Medical Research). The Illumina array data were normalized by the quantile method, and then transformed log 2 ratio values for a zero mean for expression values of each gene across all samples. The statistical and bioinformatics analyses were conducted by using R and the bioconductor package (www.bioconductor.org). The gene set enrichment analysis was conducted using the GSEA software (www.broad.mit.edu/gsea).

[1] = Amiloride sensitive Na channels, 4 hours of exposure
[2] = Amine transporters, 4 hours of exposure
[3] = Ca activated K channels, 4 hours of exposure
[4] = Calcium channels, 4 hours of exposure
[5] = Cl channels, 4 hours of exposure
[6] = Delayed rectifier K channels, 4 hours of exposure
[7] = H ion transporters, 4 hours of exposure
[8] = Rectifier K channels, 4 hours of exposure
[9] = Voltage gated Na channels, 4 hours of exposure

CCCCc1oc2ccccc2c1C(=O)c1cc(I)c(OCCN(CC)CC)c(I)c1 [Amiodarone Hydrochloride]
ERG expression, Treated NSC: 32.9
ACCN1 gene expression, Treated NSC [1]: 16.5
ACCN2 gene expression, Treated NSC [1]: 185.7
ACCN3 gene expression, Treated NSC [1]: 11
SLC1A2 gene expression, Treated NSC [2]: 15.7
SLC1A3 gene expression, Treated NSC [2]: 552.1
SLC6A3 gene expression, Treated NSC [2]: 21.2
SLC6A9 gene expression, Treated NSC [2]: 329.2
SLC6A12 gene expression, Treated NSC [2]: 9.6
KCNMB1 gene expression, Treated NSC [3]: 62.9
KCNN1 gene expression, Treated NSC [3]: 6.5
KCNN2 gene expression, Treated NSC [3]: 15.8
KCNN3 gene expression, Treated NSC [3]: 0.7
CACNA1A gene expression, Treated NSC [4]: 2
CACNA1C gene expression, Treated NSC [4]: 25.9
CACNB2 gene expression, Treated NSC [4]: 7.8
CACNG2 gene expression, Treated NSC [4]: 2.5
CLCN2 gene expression, Treated NSC [5]: 41.6
CLCN3 gene expression, Treated NSC [5]: 566.5
CLCN6 gene expression, Treated NSC [5]: 349.8
CLCN7 gene expression, Treated NSC [5]: 1305.5
CLIC1 gene expression, Treated NSC [5]: 122.2
KCNA5 gene expression, Treated NSC [6]: 24.2
KCNB1 gene expression, Treated NSC [6]: 32.8
KCNB2 gene expression, Treated NSC [6]: 25
ATP5B gene expression, Treated NSC [7]: 7030.3
ATP6V0A2 gene expression, Treated NSC [7]: 190.2
ATP6V0D1 gene expression, Treated NSC [7]: 3355
ATP6V1A gene expression, Treated NSC [7]: 1155.9
ATP6V1B2 gene expression, Treated NSC [7]: 385.4
SLC2A1 gene expression, Treated NSC [7]: 1274.8
SLC2A11 gene expression, Treated NSC [7]: 22.8
SLC35B1 gene expression, Treated NSC [7]: 1769.8
expression of Fos, FosB and DDIT3 (NSCs, four hours after exposure): significantly up regulated
KCNC4 gene expression, Treated NSC [8]: 4.5
KCND2 gene expression, Treated NSC [8]: 2.3
KCNF1 gene expression, Treated NSC [8]: 189.2
KCNG1 gene expression, Treated NSC [8]: 150.4
KCNJ4 gene expression, Treated NSC [8]: 15.9
KCNJ6 gene expression, Treated NSC [8]: 317.3
KCNJ11 gene expression, Treated NSC [8]: 13.5
KCNQ3 gene expression, Treated NSC [8]: 3.4
KCNQ2 gene expression, Treated NSC (Rectifier K channels, first line for this gene, 4 hours of exposure): 138.1
KCNQ2 gene expression, Treated NSC (Rectifier K channels, second line for this gene, 4 hours of exposure): 919.6
SCN1A gene expression, Treated NSC [9]: 20.5
SCN3A gene expression, Treated NSC [9]: 5.7
SCN9A gene expression, Treated NSC [9]: 1.9
expression of KLF 10 (intrinsic mitochondrial apoptotic pathway) (differentiated cells, treated versus untreated cells): not altered
AFF1 expression, Treated NSC (four hours after exposure): 50.8
ARID3A expression, Treated NSC (four hours after exposure): 2200
ASCL2 expression, Treated NSC (four hours after exposure): 36
CREBL1 expression, Treated NSC (four hours after exposure): 32.2
DDIT3 expression, Treated NSC (four hours after exposure): 2270
DLX1 expression, Treated NSC (four hours after exposure): 1550
DLX2 expression, Treated NSC (four hours after exposure): 54.3
E2F2 expression, Treated NSC (four hours after exposure): 635
E2F7 expression, Treated NSC (four hours after exposure): 711
E2F8 expression, Treated NSC (four hours after exposure): 82.7
EGR1 expression, Treated NSC (four hours after exposure): 3100
EGR2 expression, Treated NSC (four hours after exposure): 155
ELF4 expression, Treated NSC (four hours after exposure): 103
ELF5 expression, Treated NSC (four hours after exposure): 30.8
ELK3 expression, Treated NSC (four hours after exposure): 89.9
ELK4 expression, Treated NSC (four hours after exposure): 39.3
EN1 expression, Treated NSC (four hours after exposure): 48.7
ETS1 expression, Treated NSC (four hours after exposure): 952
ETV1 expression, Treated NSC (four hours after exposure): 34.4
ETV4 expression, Treated NSC (four hours after exposure): 672
FOS expression, Treated NSC (four hours after exposure): 1160
FOSB expression, Treated NSC (four hours after exposure): 174
FOXA2 expression, Treated NSC (four hours after exposure): 36.8
FOXD1 expression, Treated NSC (four hours after exposure): 79.7
FOXF2 expression, Treated NSC (four hours after exposure): 39.3
FOXL2 expression, Treated NSC (four hours after exposure): 120
FOXM1 expression, Treated NSC (four hours after exposure): 287
GATA2 expression, Treated NSC (four hours after exposure): 46.2
GLI2 expression, Treated NSC (four hours after exposure): 227
HCLS1 expression, Treated NSC (four hours after exposure): 40
HEY2 expression, Treated NSC (four hours after exposure): 37.9
HIRA expression, Treated NSC (four hours after exposure): 31.5
HMGB2 expression, Treated NSC (four hours after exposure): 2170
HOXA2 expression, Treated NSC (four hours after exposure): 770
HOXA13 expression, Treated NSC (four hours after exposure): 33.2
HOXB1 expression, Treated NSC (four hours after exposure): 30.6
HOXB2 expression, Treated NSC (four hours after exposure): 1100
HOXB3 expression, Treated NSC (four hours after exposure): 186
HOXB4 expression, Treated NSC (four hours after exposure): 198
HOXB5 expression, Treated NSC (four hours after exposure): 49.9
HOXD3 expression, Treated NSC (four hours after exposure): 70.2
IRF1 expression, Treated NSC (four hours after exposure): 38.9
KLF10 expression, Treated NSC (four hours after exposure): 38.1
L3MBTL expression, Treated NSC (four hours after exposure): 27.5
LHX8 expression, Treated NSC (four hours after exposure): 42.9
MEF2C expression, Treated NSC (four hours after exposure): 33.1
MEOX1 expression, Treated NSC (four hours after exposure): 178
MSX2 expression, Treated NSC (four hours after exposure): 41.9
MYEF2 expression, Treated NSC (four hours after exposure): 30.6
NFATC3 expression, Treated NSC (four hours after exposure): 32.4
NFATC4 expression, Treated NSC (four hours after exposure): 32.8
NFKB2 expression, Treated NSC (four hours after exposure): 68
NR1D2 expression, Treated NSC (four hours after exposure): 44.9
NR2C2 expression, Treated NSC (four hours after exposure): 65.3
NR4A2 expression, Treated NSC (four hours after exposure): 30.4
NRK expression, Treated NSC (four hours after exposure): 43.8
PAX8 expression, Treated NSC (four hours after exposure): 98.9
PBX2 expression, Treated NSC (four hours after exposure): 70.8
PRDM1 expression, Treated NSC (four hours after exposure): 94.7
PRRX2 expression, Treated NSC (four hours after exposure): 67.5
RELB expression, Treated NSC (four hours after exposure): 53.6
RUNX1 expression, Treated NSC (four hours after exposure): 43.3
SALL1 expression, Treated NSC (four hours after exposure): 80.9
SIX4 expression, Treated NSC (four hours after exposure): 185
STAT6 expression, Treated NSC (four hours after exposure): 55.8
TAF5L expression, Treated NSC (four hours after exposure): 77.4
TAF13 expression, Treated NSC (four hours after exposure): 35.2
TBX2 expression, Treated NSC (four hours after exposure): 46.9
TEAD3 expression, Treated NSC (four hours after exposure): 87
TEAD4 expression, Treated NSC (four hours after exposure): 235
TEF expression, Treated NSC (four hours after exposure): 32.4
TGIF1 expression, Treated NSC (four hours after exposure): 117
TP53 expression, Treated NSC (four hours after exposure): 267
ZNF85 expression, Treated NSC (four hours after exposure): 93.8
ZNF197 expression, Treated NSC (four hours after exposure): 32.8
ZNF274 expression, Treated NSC (four hours after exposure): 37.8
ZNF367 expression, Treated NSC (four hours after exposure): 30.9
ZSCAN29 expression, Treated NSC (four hours after exposure): 47.6
